Experimental findings from paper PMC10913048, “Snapshots of the Reaction Coordinate of a Thermophilic 2′-Deoxyribonucleoside/ribonucleoside Transferase” (ACS Catalysis, 2024) are described below.

Data set [1] deals with T1, CtNDT (2′-deoxyribonucleoside/ribonucleoside transferase, dNDT) (Chroococcidiopsis thermalis, UniProt K9TVX3).
T1 construct: gene Chro_1188
T1 sequence (K9TVX3 1-155): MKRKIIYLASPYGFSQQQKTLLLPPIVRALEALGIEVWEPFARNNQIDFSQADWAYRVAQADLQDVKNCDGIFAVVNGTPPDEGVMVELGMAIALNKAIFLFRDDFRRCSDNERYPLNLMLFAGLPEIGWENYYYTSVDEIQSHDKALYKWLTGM
The data set can be described thus: crystal structure of the covalent 2-difluoro-2-deoxyribosyl enzyme after cocrystallization. Format: binding.

In data set [2] the target is T1, CtNDT (2′-deoxyribonucleoside/ribonucleoside transferase, dNDT). The data set can be described thus: HPLC steady-state transglycosylation kinetics (kcat). Format: biochemical.
The target of data set [3] is T2, CtNDT (2′-deoxyribonucleoside/ribonucleoside transferase, dNDT) (Chroococcidiopsis thermalis, UniProt K9TVX3, D62N).
T2 construct: gene Chro_1188
Put plainly: co-crystal structure. It is filed as binding.

In data set [4] the target is T1, CtNDT (2′-deoxyribonucleoside/ribonucleoside transferase, dNDT). The data set can be described thus: ITC; stopped-flow fluorescence. Format: binding.
The target in data set [5] is T3, CtNDT (2′-deoxyribonucleoside/ribonucleoside transferase, dNDT) (Chroococcidiopsis thermalis, UniProt K9TVX3, E88A).
T3 construct: gene Chro_1188
Put plainly: stopped-flow tryptophan fluorescence; kon […] ^–[…] s^–[…], koff […] s^–[…]. Format: binding. The note with it: read-out: stopped-flow tryptophan fluorescence; kon 0.76 μM^-1 s^-1, koff 39.3 s^-1.

The target in data set [6] is T1, CtNDT (2′-deoxyribonucleoside/ribonucleoside transferase, dNDT). The data set can be described thus: stopped-flow fluorescence ([…]′-deoxyribosylation […] s^–[…]); HPLC steady-state kinetics (kcat/KM). It is filed as binding.
Data set [7] shares this target. The data set can be described thus: ITC; co-crystal structure. It is filed as binding. (In ITC the heat of successive injections is recorded.)
In data set [8] the target is Chroococcidiopsis thermalis nucleoside 2'-deoxyribosyltransferase (CtNDT), wild type (Chroococcidiopsis thermalis PCC 7203) (UniProt K9TVX3). The data set can be described thus: SEC; size exclusion of purified CtNDT in solution (Figure S1); conditions not shown.
Substrate in data set [9]: Nc1ncnc2c1ncn2[C@@H]1O[C@H](CO)[C@@H](O)[C@H]1O
Put plainly: crystal structure of ribosylated enzyme after cocrystallization; HPLC steady-state kinetics (KM). It is filed as biochemical, Chroococcidiopsis thermalis. The settings on record: ribosyl covalent on catalytic glutamate E88; D62 near […]′-OH and […]′-OH. The text has this:
crystal structure of ribosylated enzyme after cocrystallization; HPLC steady-state kinetics (KM) on CtNDT (2′-deoxyribonucleoside/ribonucleoside transferase, dNDT) | determined the structure of a ribosylated enzyme intermediate by cocrystallization of wild-type CtNDT in the presence of Ado

Consider `Nc1ccn([C@@H]2O[C@H](CO)[C@@H](O)C2(F)F)c(=O)n1` [Gemcitabine], for which the “crystal structure of the covalent 2-difluoro-2-deoxyribosyl enzyme after cocryst” value in data set [1] is recorded as “structure of a 2-difluoro-2-deoxy-ribosylated CtNDT after cocrystallization with Gemcitabine”.
Regarding `Nc1nc2c(ncn2[C@H]2C[C@H](O)[C@@H](CO)O2)c(=O)[nH]1` [2′-deoxyguanosine], the “HPLC steady-state transglycosylation kinetics (kcat)” value in data set [2] is listed as 6.9 ± 0.7 s^–1.
For `O=c1[nH]cnc2c([C@@H]3N[C@H](CO)[C@@H](O)[C@H]3O)c[nH]c12` [immucillin-H], in [3], the co-crystal structure result is given as “(b) CtNDTD62N bound to immucillin-H”. Besides, the affinity in data set [4], expressed as Kd, was 78.2 ± 6.6 µM.
Consider `Nc1ncnc2c1ncn2[C@H]1C[C@H](O)[C@@H](CO)O1` [2′-deoxyadenosine], for which the koff in [5] amounted to 39.3 ± 0.7 s⁻¹. Besides, in data set [6], the “stopped-flow fluorescence (2′-deoxyribosylation 532 s^-1); HPLC steady-state kin” value amounted to 50.5 ± 12.2 mM^–1 s^–1.
As to `O=c1[nH]cnc2c(CN3C[C@H](CO)[C@@H](O)C3)c[nH]c12` [DADme–immucillin-H], the affinity in data set [7], expressed as Kd, was 0.009 ± 0.005 µM.
As for “Chroococcidiopsis thermalis nucleoside 2'-deoxyribosyltransferase (CtNDT), wild type (from UniProt K9TVX3 1-155) (enzyme)”, in data set [8], the stoichiometry N stood at 4.

B1: CtNDT (2′-deoxyribonucleoside/ribonucleoside transferase, dNDT) (Chroococcidiopsis thermalis PCC 7203) (protein)
chain: T1 sequence (K9TVX3 1-155)
As for B1, the Michaelis constant (Km) in data set [9] worked out at 250 ± 50 µM.

What is called Kd is the constant that tells how readily two partners part at equilibrium. A low value points to tighter binding. In general, stoichiometry N refers to the number of molecules, sites or subunits per partner or assembly. One may read the Km as the concentration of substrate that gives half-maximal velocity.
